Measured values: paper PMC11327025 (2024)

Assays:
[1] = test system: Apt1-3 (FAM) (DNA, aptamer) CTGTTTGCTACGCAG; assay: graphene oxide fluorescence assay; conditions: aptamer 0-250 nM titrated against 1.5 μM MNZ, 2 h; abstract prints error 25.59
[2] = test system: Apt0 (FAM) (DNA, aptamer) CTGTTTGGTAGGCAG; assay: graphene oxide fluorescence assay; conditions: aptamer 0-250 nM titrated against 1.5 μM MNZ, 2 h
[3] = test system: Apt8 (FAM) (DNA, aptamer) CTGTTTGCTAGGCAG; assay: graphene oxide fluorescence assay; conditions: aptamer 0-250 nM titrated against 1.5 μM MNZ, 2 h
[4] = test system: Apt11 (FAM) (DNA, aptamer) CTGTTTGGTACGCAG; assay: graphene oxide fluorescence assay; conditions: aptamer 0-250 nM titrated against 1.5 μM MNZ, 2 h
[5] = test system: Apt1-3 (DNA, aptamer) CTGTTTGCTACGCAG; assay: exonuclease I/III digestion, SYBR Gold fluorescence; conditions: 0.25 μM MNZ, 25 °C, aptamer varied

Cc1ncc([N+](=O)[O-])n1CCO
Kd [1]: 92.60 ± 25.58 nM
Kd [2]: 154.28 ± 51.87 nM
Kd [3]: 126.18 ± 41.91 nM
Kd [4]: 151.49 ± 56.08 nM
binding [5]: yes
